For assay [1], the target named is T1, Steroid 5-α-Reductase (Homo sapiens, UniProt P31213).
T1 construct: microsomes derived from prostate tissue of benign prostatic hypertrophy (BPH) patients; from tissue; host or cells: prostate tissue of BPH patients, microsomes
T1 sequence (P31213 1-254): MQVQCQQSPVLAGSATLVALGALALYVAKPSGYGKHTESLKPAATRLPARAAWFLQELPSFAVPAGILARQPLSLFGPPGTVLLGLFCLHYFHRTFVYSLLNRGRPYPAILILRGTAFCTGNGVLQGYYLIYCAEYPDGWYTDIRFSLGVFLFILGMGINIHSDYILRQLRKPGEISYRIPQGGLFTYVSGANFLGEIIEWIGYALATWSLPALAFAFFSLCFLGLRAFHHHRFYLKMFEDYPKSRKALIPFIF
The assay is described as follows: Steroid 5-α-reductase in vitro assay, human prostate microsomes (BPH patients). It is filed as biochemical. To be noted: human prostatic microsomes; 100 nM [3H]-testosterone, 1 mM NADPH, 60 minutes at 37° C.

Assay [2] addresses Steroid 5-α-Reductase. The assay is described as follows: Steroid 5-α-reductase in vitro assay, rat prostate microsomes. The assay is classed as biochemical. To be noted: rat prostatic microsomes; 100 nM [3H]-testosterone, 1 mM NADPH, 60 minutes at 37° C.; read-out: ID50 Rat.

Molecules are shown by their SMILES.

The text below walks through data of patent publication US5543406A, “Inhibitors of 5-α-testosterone reductase” (priority 1994, dated 1996).

For the molecule `C[C@]12CC[C@H]3[C@@H](CNC4=CC(=O)CC[C@@]43C)[C@@H]1CC[C@@H]2C(=O)OC12CC3CC(CC(C3)C1)C2` [Compound 74, 17β-Carbo-(1-adamantyl)-oxy-6-azaandrost-4-en-3-one], the IC50 was less than 10 nM against Steroid 5-α-Reductase [1] and 10 to 100 nM on Steroid 5-α-Reductase [2].

For the molecule `CCN(CC)C(=O)[C@H]1CC[C@H]2[C@@H]3CNC4=CC(=O)C(C)C[C@]4(C)[C@H]3CC[C@]12C` (stereo partly drawn) [Compound 75, 17β-N,N-Diethylcarbamoyl-6-azaandrost-2-(α,β)-methyl-4-en-3-one], the IC50 against Steroid 5-α-Reductase [1] was in the range of 10 to 100 nM; on Steroid 5-α-Reductase [2], 100 to 1000 nM.

For the molecule `CCN(CC)C(=O)/C=C/[C@H]1CC[C@H]2[C@@H]3CNC4=CC(=O)CC[C@]4(C)[C@H]3CC[C@]12C` [Compound 76, 17β-1-(E)-Acrylyl(N,N-diethyl)amide-6-azaandrost-4-en-3-one], the IC50 at Steroid 5-α-Reductase [1] and at Steroid 5-α-Reductase [2] was 10 to 100 nM throughout.

With `CCN(CC)C(=O)[C@H]1CC[C@H]2[C@@H]3CCNC4=CC(=O)CC[C@]4(C)[C@H]3CC[C@]12C` [Compound 77, 17β-N,N-Diethylcarbamoyl-6-aza-B-homoandrost-4-en-3-one], the IC50 fell in the range of 10 to 100 nM against Steroid 5-α-Reductase [1] and 100 to 1000 nM on Steroid 5-α-Reductase [2].
